Usually Ki stands for the equilibrium dissociation constant of an inhibitor or competing ligand from its target. A lower Ki goes with higher affinity.

Each structure is given as a SMILES string.

This passage reports Ki and Kb results from ChEMBL document CHEMBL1128090, “Substituted 2,4-diaminoquinazolines and 2,4-diamino-8-alkylpurines as antagonists of the neurokinin-2 (NK2) receptor” (Bioorg Med Chem Lett, 1995).

For test [1], the target named is T1, Substance-K receptor (Mesocricetus auratus, UniProt P51144).
T1 sequence (P51144 whole entry): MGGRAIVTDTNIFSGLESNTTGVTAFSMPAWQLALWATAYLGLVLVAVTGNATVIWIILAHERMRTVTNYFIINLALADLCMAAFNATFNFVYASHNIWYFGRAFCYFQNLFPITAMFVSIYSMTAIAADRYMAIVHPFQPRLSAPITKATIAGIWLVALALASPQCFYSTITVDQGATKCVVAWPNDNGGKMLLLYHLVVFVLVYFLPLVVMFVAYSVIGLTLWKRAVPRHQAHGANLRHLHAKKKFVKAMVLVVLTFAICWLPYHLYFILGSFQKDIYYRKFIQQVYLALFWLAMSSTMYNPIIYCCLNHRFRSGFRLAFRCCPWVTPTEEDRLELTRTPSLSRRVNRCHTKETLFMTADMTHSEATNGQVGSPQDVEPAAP
As to the kind of experiment: Inhibition constant for displacement of [3H]NKA from Tachykinin receptor 2 found in hamster urinary bladder membrane (HUBM). Type of test: cell membranes. (In general: Loss of bound radioactivity is the signal in a displacement assay; it reports binding, not function.)

The species entered for another test is Cavia porcellus. Kind of test: Compound was tested for the inhibition of contraction induced by [b-Ala8-NKA(4-10)] in guinea pig trachea. Type of test: functional.
Test [2] deals with T2, Substance-K receptor (Homo sapiens, UniProt P21452).
T2 sequence (P21452 whole entry): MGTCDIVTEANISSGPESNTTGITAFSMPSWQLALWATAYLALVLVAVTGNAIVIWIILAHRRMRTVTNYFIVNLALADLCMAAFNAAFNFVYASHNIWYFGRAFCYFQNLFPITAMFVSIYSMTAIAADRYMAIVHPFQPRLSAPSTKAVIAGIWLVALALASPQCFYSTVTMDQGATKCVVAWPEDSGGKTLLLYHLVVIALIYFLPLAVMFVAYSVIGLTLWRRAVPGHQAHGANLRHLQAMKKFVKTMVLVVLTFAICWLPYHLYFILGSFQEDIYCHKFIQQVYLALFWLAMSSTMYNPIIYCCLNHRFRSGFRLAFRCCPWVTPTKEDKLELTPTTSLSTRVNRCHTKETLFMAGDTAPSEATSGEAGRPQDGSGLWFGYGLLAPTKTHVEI
As to the kind of experiment: Displacement of [3H]NKA from the cloned human Tachykinin receptor 2 which has been expressed in baculovirus infected insect sf21 cells.

Test [3] deals with T2, Substance-K receptor. Kind of test: Inhibition constant for displacement of [3H]NKA from the cloned human NK2 receptor.
The target of test [4] is T2, Substance-K receptor. Kind of test: Inhibition constant for displacement of [3H]-NKA from the cloned human NK2 receptor which has been expressed in baculovirus infected insect sf21 cells.

For the compound `Clc1ccc(Nc2nc(N3CCOCC3)nc3ccccc23)cc1`, the Ki at Substance-K receptor [1] stood at 29.5 µM.
`CC(C)c1nc2nc(N3CCC(C)(O)CC3)nc(Nc3ccc(Cl)cc3)c2[nH]1` displayed a Kb in the test listed under Cavia porcellus of 10.7 µM. Moreover, the Ki on Substance-K receptor [2] stood at 2.1 µM.
Regarding `CCCc1nc2nc(N3CCOCC3)nc(Nc3ccc(Cl)cc3)c2[nH]1`, the Ki at Substance-K receptor [3] stood at 2.34 µM; on Substance-K receptor [1], 0.054 µM.
Compound `CC(C)c1nc2[nH]c(NCc3ccccc3)nc(Nc3ccc(Cl)cc3)c-2n1` registered a Ki on Substance-K receptor [2] of 5.58 µM.
With `CC(C)c1nc2[nH]c(NCCCN)nc(Nc3ccc(Cl)cc3)c-2n1`, the Ki at Substance-K receptor [2] came out at 2.55 µM.
On to `Cc1nc2[nH]c(N3CCOCC3)nc(Nc3ccc(Cl)cc3)c-2n1`, for which the Ki on Substance-K receptor [3] was 17.5 µM; at Substance-K receptor [1], 6.6 µM.
In the case of `CC(C)c1nc2[nH]c(N3CCC4(CC3)OCCO4)nc(Nc3ccc(Cl)cc3)c-2n1`, the Ki on Substance-K receptor [2] was 4.36 µM.
In the test listed under Cavia porcellus, `CC(C)c1nc2nc(N3CCOCC3)nc(Nc3ccc(C(F)(F)F)cc3)c2[nH]1` displayed a Kb of over 100 µM. On Substance-K receptor [2], this compound yielded a Ki of 2.85 µM.
Taken in the same sequence, the figures for `CC(C)c1nc2nc(N3CCC(O)CC3)nc(Nc3ccc(C(F)(F)F)cc3)c2[nH]1` were over 100 µM and 1.77 µM.
With `CCCNc1nc(Nc2ccc(Cl)cc2)c2[nH]c(C(C)C)nc2n1`, the Ki at Substance-K receptor [2] worked out at 3.49 µM.
In the case of `O=C(O)c1ccc2c(Nc3ccc(Cl)cc3)nc(N3CCOCC3)nc2c1`, affinity on Substance-K receptor [1] was put at a Ki of 20.3 µM.
At Substance-K receptor [1], `COC(=O)c1ccc2c(Nc3ccc(Cl)cc3)nc(N3CCOCC3)nc2c1` came in with a Ki of 0.82 µM.
On to `CC(C)c1nc2[nH]c(N3CCC(=O)CC3)nc(Nc3ccc(Cl)cc3)c-2n1`, for which, on Substance-K receptor [2], the Ki came out at 5.89 µM.
Consider `CCc1nc2nc(N3CCOCC3)nc(Nc3ccc(Cl)cc3)c2[nH]1`, for which the Ki on Substance-K receptor [3] was determined as 6.94 µM; at Substance-K receptor [1], 0.52 µM.
As to `CC(C)NC(=O)c1ccc2c(Nc3ccc(Cl)cc3)nc(N3CCOCC3)nc2c1`, at Substance-K receptor [1], the Ki is 58.7 µM.
`CC(C)N1Cc2c(Nc3ccc(Cl)cc3)nc(N3CCOCC3)nc2C1=O`: the Ki at Substance-K receptor [3] worked out at 0.55 µM; on Substance-K receptor [1], 0.015 µM.
On to `COC1(OC)CCN(c2nc(Nc3ccc(Cl)cc3)c3[nH]c(C(C)C)nc3n2)CC1`, for which the Ki on Substance-K receptor [2] is 3.44 µM.
For `CC(C)c1nc2[nH]c(N3CCOCC3)nc(Nc3ccc(Cl)cc3)c-2n1`, in the test filed under Cavia porcellus, the Kb was 70.8 µM. In addition, the Ki came out at 3.07 µM at Substance-K receptor [4] and 0.067 µM at Substance-K receptor [1].
`CC(C)c1nc2nc(N3CCC(O)(c4ccccc4)CC3)nc(Nc3ccc(Cl)cc3)c2[nH]1`: the Kb in the test listed under Cavia porcellus was found to be 100 µM. In addition, the Ki at Substance-K receptor [2] was found to be 2.24 µM.
